# Laboratory results from BindingDB's records for patent US9745282 (Merck Sharp & Dohme Corp, 2017).
# pIC50: −log10 of the molar value.
# Target: T1, Cytochrome P450 11B1, mitochondrial (Homo sapiens, UniProt P15538)
# T1 sequence (P15538 whole entry): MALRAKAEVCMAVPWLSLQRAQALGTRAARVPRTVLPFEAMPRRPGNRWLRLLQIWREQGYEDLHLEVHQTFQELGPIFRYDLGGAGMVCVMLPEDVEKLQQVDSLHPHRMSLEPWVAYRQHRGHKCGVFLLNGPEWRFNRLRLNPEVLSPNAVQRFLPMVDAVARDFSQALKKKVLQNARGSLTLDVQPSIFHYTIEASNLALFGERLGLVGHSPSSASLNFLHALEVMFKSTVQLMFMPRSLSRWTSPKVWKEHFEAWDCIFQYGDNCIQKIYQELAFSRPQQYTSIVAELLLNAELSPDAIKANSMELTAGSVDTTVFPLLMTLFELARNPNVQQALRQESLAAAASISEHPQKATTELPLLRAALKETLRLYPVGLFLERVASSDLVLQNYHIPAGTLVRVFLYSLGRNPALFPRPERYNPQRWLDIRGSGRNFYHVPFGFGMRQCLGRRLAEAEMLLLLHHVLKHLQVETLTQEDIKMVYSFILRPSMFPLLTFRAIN
row,Compound,pIC50
1,"O=C(N1CCc2cc(-c3cncc(F)c3)cc(F)c21)C(F)(F)F [US9745282, 33]",5.85
2,"CC(C)C(=O)N1CCc2cc(-c3cncc4ccccc34)ccc21 [US9745282, 30]",5.43
3,"CC(=O)N1CCc2cc(-c3cncc(F)c3C)cc(Cl)c21 [US9745282, 8]",6.57

# More lines, in order of rising pIC50, values ahead:
row,pIC50,Compound
1,6.28,"O=C(N1CCc2cc(-c3cncc(F)c3)cc(Cl)c21)C(F)(F)F [US9745282, 32]"
2,7.17,"CC(=O)N1CCc2cc(-c3cnccc3C)cc(F)c21 [US9745282, 15]"
